Values of other authors, collected in patent publication US20250177407A1 (Closed Loop Medicine Ltd., priority 2023, published 2025).
Like-named read-outs stand apart in the source and are kept apart here. Marks after values point to notes of the source that are not given here.

Key:
[1] = not given; remark: listed apart in the source
[2] = not given; remark: listed apart in the source
[3] = not given; remark: listed apart in the source
[4] = not given; remark: listed apart in the source
[5] = test system: prothrombin time
[6] = biological target: factor Xa activity (Homo sapiens, UniProt P00742)
[7] = test system: patients with nonvalvular AF; conditions: ROCKET-AF
[8] = test system: patients with AF; conditions: management of AF
[9] = clearance adjustment, comedication

Chain of factor Xa activity (P00742 235-488 limits assumed): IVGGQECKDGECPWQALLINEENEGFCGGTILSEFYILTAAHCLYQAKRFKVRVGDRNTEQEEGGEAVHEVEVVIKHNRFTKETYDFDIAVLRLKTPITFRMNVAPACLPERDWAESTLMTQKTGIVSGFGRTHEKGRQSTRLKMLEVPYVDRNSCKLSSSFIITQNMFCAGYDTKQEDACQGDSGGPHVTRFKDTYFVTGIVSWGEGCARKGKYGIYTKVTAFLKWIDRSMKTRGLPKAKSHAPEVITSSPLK
Chain of factor Xa activity (P00742 41-179 partner limits assumed): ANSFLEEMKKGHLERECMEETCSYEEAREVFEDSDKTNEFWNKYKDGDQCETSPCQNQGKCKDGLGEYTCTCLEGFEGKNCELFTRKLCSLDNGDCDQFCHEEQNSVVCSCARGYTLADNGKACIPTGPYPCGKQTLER

For `O=C(NC[C@H]1CN(c2ccc(N3CCOCC3=O)cc2)C(=O)O1)c1ccc(Cl)s1` [rivaroxaban], the bioavailability (20 mg tablets, fasting, healthy subjects) is listed as “approximately 66%”, the “variability in drug plasma levels for a given dose” value (between patients) is listed as 6- to 10 fold and the half-life (elderly) is listed as 11 to 13 h. The half life (elderly patients) was about 12 h, the half-life (healthy volunteers) was 5 to 9 h and the “fraction of absorbed drug eliminated unchanged via the kidney” value (human, in vivo) was 30%. The “fraction of absorbed drug metabolised by hepatic CYP 3A4/5 and CYP-independent enzymes” value (human, in vivo) was “Approximately 60%”, the “time to peak levels” value (once daily immediate release with food) was 1 to 2 h and the bioavailability (oral 2.5 and 10 mg tablets, not affected by food) was 80-100%. For the same compound, the “time to peak concentration” value (oral administration) was 2 to 4 h, the half-life (population not specified) was 5 to 9 h and the half life (young patients) was 5 to 9 h. The plasma protein binding [1] was 92-95%, the “interethnic differences in PK and PD characteristics” value ([2]; Caucasian, African-American, Hispanic, Japanese, Chinese patients (EMA)) was “no clinically relevant interethnic differences” and the “higher exposure compared to other ethnicities” value ([2]; healthy Japanese subjects, on average (FDA)) was 20-40%. The “increase in AUC compared with healthy subjects” value ([2]; mild (Child-Pugh A) hepatic impairment) was 15%, the increase in exposure ([2]; mild renal impairment (CrCl 50-79 mL/min)) was 44% and the “increase in the effect-time curve AUC” value ([2]; moderate hepatic impairment) was 159%. For the same compound, the prothrombin time ([2]; moderate hepatic impairment) was “significant prolongation”, the increase in exposure ([2]; moderate renal impairment (CrCl 30-49 mL/min)) was 52% and the increase in exposure ([2]; severe renal impairment (CrCl<30 mL/min)) was 64%. The “θCL/F, P-gp inhibitor” value ([3]; clearance adjustment, P-gp inhibitor comedication) was 0.996 Proportion, the “θCL/F, VTE ≤72 hr” value ([3]; clearance adjustment, VTE prevention after hip or knee surgery, less than 72 hours) was 1.04 Proportion and the “θCL/F, VTE >72 hr” value ([3]; clearance adjustment, VTE prevention after hip or knee surgery, more than 72 hours) was 1.29 Proportion. For the same compound, the “θCL/F, ACS” value ([3]; clearance adjustment, acute coronary syndrome) was 1.14 Proportion, the “θCL/F, CYP3A4 inducer” value [3, 9] was 1.3 Proportion and the “θCL/F, Medium CYP3A4 inhibitor” value [3, 9] was 0.863 Proportion. The “θCL/F, Strong CYP3A4 inhibitor” value [3, 9] was 0.978 Proportion, the “θCL/F, Weak CYP3A4 inhibitor” value [3, 9] was 0.939 Proportion and the “θCL/F, AF” value ([3]; clearance adjustment, stroke prevention in AF) was 0.849 Proportion. The “θV/F, Age” value ([3]; covariate effect of age on V/F) was −0.189 Power, the “θCL/F, Weight” value ([3]; covariate effect of body weight on CL/F) was −0.278 Power and the “θV/F, Weight” value ([3]; covariate effect of body weight on V/F) was 0.216 Power. The “θCL/F, CRCL” value ([3]; covariate effect of creatinine clearance on CL/F) was 0.406 Power, the “θV/F, Sex” value ([3]; covariate effect of sex on V/F) was 0.889 Proportion and the “ω^2CL/F” value ([3]; inter-individual variability) was 0.167 Variance. For the same compound, the “ω^2CL/F, V/F” value ([3]; inter-individual variability) was 0.0674 Covariance, the “ω^2Ka” value ([3]; inter-individual variability) was 0.628 Variance and the “ω^2V/F” value ([3]; inter-individual variability) was 0.0391 Variance. The “CL/F, apparent clearance” value ([3]; population PK estimate) was 6.58 L/h, the “Ka, first-order absorption rate constant” value ([3]; population PK estimate) was 0.821 h⁻¹ and the “V/F, apparent volume of distribution” value ([3]; population PK estimate) was 62.5 L. For the same compound, the D50 ([3]; relative bioavailability model) was 14.4 mg, the “σ^2prop” value ([3]; residual variability) was 0.203 Variance and the “increase in drug level exposure (AUC)” value ([4]; CrCl = 30, relative to median CrCl of 69 for the RE-LY study data) was 1.8 fold. For the same compound, the “increase in drug level exposure (AUC)” value ([4]; CrCl = 50, relative to median CrCl of 69 for the RE-LY study data) was 1.3 fold, the “increase in drug level exposure (AUC)” value ([4]; South Asians compared to other ethnicities) was ~26% increase in South Asians compared to and the “increase in drug level exposure (AUC) per year older” value ([4]; age, compared to 72 yr) was 0.41% increase per year older compared to 72 yr. The “decrease in drug level exposure (AUC)” value ([4]; comedication PPIs) was about 13% decrease, the “increase in drug level exposure (AUC)” value ([4]; comedication amiodarone) was 12% increase and the “increase in drug level exposure (AUC)” value ([4]; comedication verapamil) was 23% increase. For the same compound, the “increase in drug level exposure (AUC)” value ([4]; females compared to men) was ~9% increase in females compared to men, the “decrease in Vd” value ([4]; haemoglobin above 14.3 g · dL^−1) was “by 4%/1 g · dL^−1 above 14.3 g · dL^−1” and the “effect of low weight on Cmax” value ([4]; in vivo) was “increase Cmax”. The “increase in drug level exposure (AUC)” value ([4]; patients with heart failure) was ~7% increase in patients with HF, the “increase in distribution volume (Vd) per kg above 80 kg” value ([4]; weight) was “in distribution volume (Vd) by 0.8%” and the “slope of prothrombin time versus plasma concentration” value ([5]; Esmueti et al. (2022), Fisherbrand reagent) was 0.018 s/(μg/ L). For the same compound, the Hill ([5]; Zhao et al. (2022)) was 1.37 ^b, the “slope of prothrombin time versus plasma concentration” value ([5]; Zhao et al. (2022)) was 0.0018 ^b s/(μg/L) and the Emax ([6]; Girgis et al. (2014)) was 107%. The Emax ([6]; Mueck et al. (2007)) was 0.86 U/ml, the Emax ([6]; Mueck et al. (2008b), KRS) was 0.837 U/ml and the Emax ([6]; Mueck et al. (2008b), day 1, HRS) was 0.881 U/ml. For the same compound, the Emax ([6]; Mueck et al. (2008b), steady state, HRS) was 0.942 U/ml, the “FXa0 (second entry of the cell)” value ([6]; Tanigawa et al. (2013)) was 0.928 U/mL and the Hill ([6]; Tanigawa et al. (2013)) was 1.16. For the same compound, the “rate of fatal stroke” value [7] was 1.7 % per year and the “risk of intracranial bleeds” value [7] was 0.5%.
In the case of `CC(=O)CC(c1ccccc1)c1c(O)c2ccccc2oc1=O` (stereo not shown) [warfarin], the reduction of stroke [8] is listed as “about 60%” and the “rate of fatal stroke” value [7] is listed as 2.2 % per year.
